{
  "source": "patent US9765074B2",
  "about": "“Inhibitors of the renal outer medullary potassium channel” (Merck Sharp & Dohme Corp., priority 2013, dated 2017)",
  "data": [
    {"biological_target": "T1, hROMK (hKir1.1) (Homo sapiens, UniProt P48048)", "T1 construct": "expressed in transfected cells", "T1 sequence (P48048 1-391)": "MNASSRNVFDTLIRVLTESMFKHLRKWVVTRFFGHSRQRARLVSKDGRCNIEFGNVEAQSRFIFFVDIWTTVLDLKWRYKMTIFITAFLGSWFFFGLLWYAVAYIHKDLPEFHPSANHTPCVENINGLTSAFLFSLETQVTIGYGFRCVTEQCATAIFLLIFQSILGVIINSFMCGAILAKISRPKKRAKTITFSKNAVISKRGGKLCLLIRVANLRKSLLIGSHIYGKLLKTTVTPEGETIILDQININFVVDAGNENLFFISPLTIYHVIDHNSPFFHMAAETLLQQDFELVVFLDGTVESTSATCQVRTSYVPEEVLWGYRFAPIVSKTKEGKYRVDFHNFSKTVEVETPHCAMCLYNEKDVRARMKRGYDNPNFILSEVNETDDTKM", "test": "Thallium Flux Assay (ROMK channel functional thallium flux, FLIPR-Tetra)", "assay_type": "cell-based", "settings": "HEK293 cells stably expressing hROMK (hKir1.1); 30 min compound incubation", "method_in_brief": "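Thallium flux read by FluxOR fluorescence ([…]) for ~10 min after adding 3 mM Tl+/0.3 mM K+ final. Stable HEK-hKir1.1 cells were dye-loaded 90 min, exposed to compound 30 min at room temperature in ouabain/probenecid buffer; IC50 relative to a 3 μM control inhibitor.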", "units": {"IC50": "µM"}, "values": [
      {"smiles": "COCC1=C(N2CCC3(CCN(C[C@H](O)c4ccc(-n5cnnn5)nc4)CC3)C2=O)COC1=O", "note": "[Example 182, 8-{(2R)-2-hydroxy-2-[6-(1H-tetrazol-1-yl)pyridin-3-yl]ethyl}-2-[4-(methoxymethyl)-5-oxo-2,5-dihydrofuran-3-yl]-2,8-diazaspiro[4.5]decan-1-one]", "IC50": 0.05},
      {"smiles": "CC1=CC2(CCN(C[C@H](O)c3cnc(-n4cnnn4)cn3)CC2)C(=O)N1C1=CC(=O)OC1", "note": "[Example 187, 8-{(2S)-2-hydroxy-2-[5-(1H-tetrazol-1-yl)pyrazin-2-yl]ethyl}-3-methyl-2-(5-oxo-2,5-dihydrofuran-3-yl)-2,8-diazaspiro[4.5]dec-3-en-1-one]", "IC50": 0.1},
      {"smiles": "CC1=CC2(CCN(C[C@H](O)c3ccc(-n4cnnn4)nn3)CC2)C(=O)N1C1=CC(=O)OC1", "note": "[Example 188, 8-{(2S)-2-hydroxy-2-[6-(1H-tetrazol-1-yl)pyridazin-3-yl]ethyl}-3-methyl-2-(5-oxo-2,5-dihydrofuran-3-yl)-2,8-diazaspiro[4.5]dec-3-en-1-one]", "IC50": 0.05},
      {"smiles": "CC1(C)CC2(CCN(C[C@H](O)c3ccc(-n4cnnn4)nn3)CC2)C(=O)N1C1=CC(=O)OC1", "note": "[Example 189, 8-{(2S)-2-hydroxy-2-[6-(1H-tetrazol-1-yl)pyridazin-3-yl]ethyl}-3,3-dimethyl-1-oxo-2-(5-oxo-2,5-dihydrofuran-3-yl)-2-aza-8-azoniaspiro[4.5]decane]", "IC50": 0.05},
      {"smiles": "CC1(C)CC2(CCN(C[C@@H](O)c3ccc(-n4cnnn4)nn3)CC2)C(=O)N1C1=CC(=O)OC1", "note": "[Example 190, 8-{(2R)-2-hydroxy-2-[6-(1H-tetrazol-1-yl)pyridazin-3-yl]ethyl}-3,3-dimethyl-1-oxo-2-(5-oxo-2,5-dihydrofuran-3-yl)-2-aza-8-azoniaspiro[4.5]decane]", "IC50": 0.05},
      {"smiles": "COCC1=C(N2CCC3(CCN(C[C@H](O)c4ccc(-n5cnnn5)nn4)CC3)C2=O)COC1=O", "note": "[Example 191, 8-{(2S)-2-hydroxy-2-[6-(1H-tetrazol-1-yl)pyridazin-3-yl]ethyl}-2-[4-(methoxymethyl)-5-oxo-2,5-dihydrofuran-3-yl]-2,8-diazaspiro[4.5]decan-1-one]", "IC50": 0.07},
      {"smiles": "COCC1=C(N2CCC3(CCN(C[C@H](O)c4cnc(-n5cnnn5)cn4)CC3)C2=O)COC1=O", "note": "[Example 200, 8-{(2S)-2-hydroxy-2-[5-(1H-tetrazol-1-yl)pyrazin-2-yl]ethyl}-2-[4-(methoxymethyl)-5-oxo-2,5-dihydrofuran-3-yl]-2,8-diazaspiro[4.5]decan-1-one]", "IC50": 0.08},
      {"smiles": "O=C1C=C(N2C=CC3(CCN(C[C@H](O)c4ccc(-n5cnnn5)nn4)CC3)C2=O)CO1", "note": "[Example 201, 8-{(2S)-2-hydroxy-2-[6-(1H-tetrazol-1-yl)pyridazin-3-yl]ethyl}-1-oxo-2-(5-oxo-2,5-dihydrofuran-3-yl)-2-aza-8-azoniaspiro[4.5]dec-3-ene]", "IC50": 0.12},
      {"smiles": "CC1=C(N2CCC3(CCN(CCc4ccc(-n5cnnn5)nn4)CC3)C2=O)COC1=O", "note": "[Example 232, 8-(2-(6-(1H-Tetrazol-1-yl)pyridazin-3-yl)ethyl)-2-(4-methyl-5-oxo-2,5-dihydrofuran-3-yl)-2,8-diazaspiro[4.5]decan-1-one]", "IC50": 0.01},
      {"smiles": "CC1=C(N2CCC3(CCN(CCc4ccc(-n5cnnn5)nc4)CC3)C2=O)COC1=O", "note": "[Example 233]", "IC50": 0.01},
      {"smiles": "CC1=C(N2CCC3(CCN(CCc4cnc(-n5cnnn5)cn4)CC3)C2=O)COC1=O", "note": "[Example 234, 2-(4-methyl-5-oxo-2,5-dihydrofuran-3-yl)-1-oxo-8-{2-[5-(1H-tetrazol-1-yl)pyrazin-2-yl]ethyl}-2-aza-8-azoniaspiro[4.5]decane]", "IC50": 0.01},
      {"smiles": "CC1=C(N2CCC3(CC4CCC(C3)N4CCc3ccc(-n4cnnn4)nn3)C2=O)COC1=O", "note": "[Example 235, (1S,5S)-1′-(4-methyl-5-oxo-2,5-dihydrofuran-3-yl)-2′-oxo-8-{2-[6-(1H-tetrazol-1-yl)pyridazin-3-yl]ethyl}spiro[8-azoniabicyclo[3.2.1]octane-3,3′-pyrrolidine]]", "IC50": 0.01},
      {"smiles": "CC1=C(N2CCC3(CCN(CCc4nnc(-n5cnnn5)cc4C)CC3)C2=O)COC1=O", "note": "[Example 236, 2-(4-methyl-5-oxo-2,5-dihydrofuran-3-yl)-8-{2-[4-methyl-6-(1H-tetrazol-1-yl)pyridazin-3-yl]ethyl}-1-oxo-2-aza-8-azoniaspiro[4.5]decane]", "IC50": 0.004},
      {"smiles": "CC1=C(N2CCC3(CCN(CCc4cc(C)c(-n5cnnn5)nn4)CC3)C2=O)COC1=O", "note": "[Example 237, 2-(4-methyl-5-oxo-2,5-dihydrofuran-3-yl)-8-{2-[5-methyl-6-(1H-tetrazol-1-yl)pyridazin-3-yl]ethyl}-1-oxo-2-aza-8-azoniaspiro[4.5]decane]", "IC50": 0.02},
      {"smiles": "CC1=C(N2CCC3(CCN(CCc4ccc(-n5cnnn5)cn4)CC3)C2=O)COC1=O", "note": "[Example 238, 2-(4-methyl-5-oxo-2,5-dihydrofuran-3-yl)-1-oxo-8-{2-[5-(1H-tetrazol-1-yl)pyridin-2-yl]ethyl}-2-aza-8-azoniaspiro[4.5]decane]", "IC50": 0.01},
      {"smiles": "CC1=C(N2CCC3(CC4COCC(C3)N4CCc3ccc(-n4cnnn4)nn3)C2=O)COC1=O", "note": "[Example 239, (1R,5S,9r)-1′-(4-methyl-5-oxo-2,5-(dihydrofuran-3-yl)-2′-oxo-9-{2-[6-(1H-tetrazol-1-yl)pyridazin-3-yl]ethyl}spiro[7-oxa-9-azoniabicyclo[3.3.1]nonane-3,3′-pyrrolidine]]", "IC50": 0.32},
      {"smiles": "C[C@H]1CC2(CCN(CCc3cnc(-n4cnnn4)cn3)CC2)C(=O)N1C1=CC(=O)OC1", "note": "[Example 246, 3(S)-methyl-1-oxo-2-(5-oxo-2,5-dihydrofuran-3-yl)-8-{2-[5-(1H-tetrazol-1-yl)pyrazin-2-yl]ethyl}-2-aza-8-azoniaspiro[4.5]decane]", "IC50": 0.02},
      {"smiles": "CC1=C(N2C=CC3(CCN(CCc4ccc(-n5cnnn5)nn4)CC3)C2=O)COC1=O", "note": "[Example 247, 2-(4-methyl-5-oxo-2,5-dihydrofuran-3-yl)-1-oxo-8-{2-[6-(1H-tetrazol-1-yl)pyridazin-3-yl]ethyl}-2-aza-8-azoniaspiro[4.5]dec-3-ene]", "IC50": 0.02},
      {"smiles": "CC1=C(N2C=CC3(CCN(CCc4nnc(-n5cnnn5)cc4C)CC3)C2=O)COC1=O", "note": "[Example 248, 2-(4-methyl-5-oxo-2,5-dihydrofuran-3-yl)-8-{2-[4-methyl-6-(1H-tetrazol-1-yl)pyridazin-3-yl]ethyl}-1-oxo-2-aza-8-azoniaspiro[4.5]dec-3-ene]", "IC50": 0.02},
      {"smiles": "O=C1C=C(N2C=CC3(CCN(CCc4ccc(-n5cnnn5)nn4)CC3)C2=O)CO1", "note": "[Example 249, 1-oxo-2-(5-oxo-2,5-dihydrofuran-3-yl)-8-{2-[6-(1H-tetrazol-1-yl)pyridazin-3-yl]ethyl}-2-aza-8-azoniaspiro[4.5]dec-3-ene]", "IC50": 0.04},
      {"smiles": "CC1=C(N2CCC3(CCN(CCc4cnc(-n5cnnn5)cc4CO)CC3)C2=O)COC1=O", "note": "[Example 250, 8-{2-[4-(hydroxymethyl)-6-(1H-tetrazol-1-yl)pyridin-3-yl]ethyl}-2-(4-methyl-5-oxo-2,5-dihydrofuran-3-yl)-1-oxo-2-aza-8-azoniaspiro[4.5]decane]", "IC50": 0.08},
      {"smiles": "CC1=C(N2C=CC3(CCN(CCc4cnc(-n5cnnn5)cn4)CC3)C2=O)COC1=O", "note": "[Example 251, 2-(4-methyl-5-oxo-2,5-dihydrofuran-3-yl)-1-oxo-8-{2-[5-(1H-tetrazol-1-yl)pyrazin-2-yl]ethyl}-2-aza-8-azoniaspiro[4.5]dec-3-ene]", "IC50": 0.05},
      {"smiles": "CC1=C(N2CCC3(CCN(CCc4ncc(-n5cnnn5)nc4C)CC3)C2=O)COC1=O", "note": "[Example 252, 2-(4-methyl-5-oxo-2,5-dihydrofuran-3-yl)-8-{2-[3-methyl-5-(1H-tetrazol-1-yl)pyrazin-2-yl]ethyl}-2,8-diazaspiro[4.5]decan-1-one]", "IC50": 0.01},
      {"smiles": "CC1=CN(C2=C(C)C(=O)OC2)C(=O)C12CCN(CCc1ccc(-n3cnnn3)nn1)CC2", "note": "[Example 253, 4-methyl-2-(4-methyl-5-oxo-2,5-dihydrofuran-3-yl)-1-oxo-8-{2-[6-(1H-tetrazol-1-yl)pyridazin-3-yl]ethyl}-2-aza-8-azoniaspiro[4.5]dec-3-ene]", "IC50": 0.02},
      {"smiles": "COC(=O)c1cc(-n2cnnn2)ncc1CCN1CCC2(CC1)CCN(C1=C(C)C(=O)OC1)C2=O", "note": "[Example 254, methyl 5-(2-(2-(4-methyl-5-oxo-2,5-dihydrofuran-3-yl)-1-oxo-2,8-diazaspiro[4.5]decan-8-yl)ethyl)-2-(1H-tetrazol-1-yl)isonicotinate]", "IC50": 0.03},
      {"smiles": "CC1=CC2(CCN(CCc3ccc(-n4cnnn4)nn3)CC2)C(=O)N1C1=CC(=O)OC1", "note": "[Example 255, 3-methyl-2-(5-oxo-2,5-dihydrofuran-3-yl)-8-{2-[6-(1H-tetrazol-1-yl)pyridazin-3-yl]ethyl}-2,8-diazaspiro[4.5]dec-3-en-1-one]", "IC50": 0.02},
      {"smiles": "CC1=CN(C2=C(C)C(=O)OC2)C(=O)C12CCN(CCc1nnc(-n3cnnn3)cc1C)CC2", "note": "[Example 256, 4-methyl-2-(4-methyl-5-oxo-2,5-dihydrofuran-3-yl)-8-{2-[4-methyl-6-(1H-tetrazol-1-yl)pyridazin-3-yl]ethyl}-1-oxo-2-aza-8-azoniaspiro[4.5]dec-3-ene]", "IC50": 0.03},
      {"smiles": "Cc1nc(-n2cnnn2)cnc1CCN1CCC2(CC1)C[C@H](C)N(C1=CC(=O)OC1)C2=O", "note": "[Example 261, (3S)-3-methyl-8-{2-[3-methyl-5-(1H-tetrazol-1-yl)pyrazin-2-yl]ethyl}-2-(5-oxo-2,5-dihydrofuran-3-yl)-2,8-diazaspiro[4.5]decan-1-one]", "IC50": 0.003}
    ]}
  ]
}
